According to patent US11628220B2, “Pharmaceutical composition and methods of uses” (Foresee Pharmaceuticals Co., Ltd., priority 2016, dated 2023):
≈ marks a conversion by molar mass, not a printed value.

How the values were obtained:
Assay type in all cases: physicochemical
[1] = Aqueous solubility in different cyclodextrin solutions (excess compound, shaken 24 hours, HPLC); settings: aqueous cyclodextrin solution, thermodynamic from solid, room temperature, read-out: Solubility in CD's solution (concentration of compound)
Method: In order to test the effect of various CDs on the aqueous solubility of compound IVE, 1 mL of each of the following aqueous solutions as described in Table 2 was prepared. […] Excess IVE was present in all samples at all times to obtain solubility. After 24-hours, the samples were centrifuged. […] The size of the compound may allow it to form an inclusion complex, resulting in a higher aqueous solubility.
In order to test the effect of various CDs on the aqueous solubility of compound IVP, 1 mL of each of the following aqueous solutions as described in Table 3 was prepared. […] Excess IVP was present in all samples at all times. After 24-hours, the samples were centrifuged. […] The size of the compound may allow it to form an inclusion complex, resulting in a higher aqueous solubility.
In order to test the effect of various CDs on the aqueous solubility of compound IVO, 1 mL of each of the following aqueous solutions as described in Table 4 was prepared. […] Excess IVO was present in all samples at all times. After 24-hours, the samples were centrifuged. […] The size of the compound may allow it to form an inclusion body complex, resulting in a higher aqueous solubility.
In order to test the effect of various CDs on the aqueous solubility of compound IVQ, 1 mL of each of the following aqueous solutions as described in Table 5 was prepared. […] Excess IVQ was present in all samples at all times. After 24-hours, the samples were centrifuged. […] The size of the compound may allow it to form an inclusion body complex, resulting in a higher aqueous solubility.

[2] = Comparable solubility test for IVO ASD-01 in DI water; settings: 1.5 ml DI water
Method: The samples were centrifuged at 3 and 24 hours.

[3] = Solubility of compound IVO in solutions containing L-Arginine; settings: thermodynamic from solid
Description: After 24-hours, the samples were centrifuged. […] One possibility is that L-Arginine may help promote the formation of inclusion complex between IVO and MBCD.

Which results are given for Cc1cccc(COc2ccc(Sc3ccoc3C3NC(=O)NC3=O)cc2)c1 (stereo not drawn) [IVO, 5-{3-[4-(3-Methyl-benzyloxy)phenylthio]fur-2-yl}imidazolidine-2,4-dione]?
solubility at 24 h ([1]; aqueous with cosolvent or surfactant or cyclodextrin, ACD 5 mg/ml): 0.037 mg/mL (≈ 93.8 µM); solubility at 24 h ([1]; aqueous with cosolvent or surfactant or cyclodextrin, ACD 10 mg/ml): 0.03 mg/mL (≈ 76.1 µM); solubility at 24 h ([1]; aqueous with cosolvent or surfactant or cyclodextrin, ACD 15 mg/ml): 0.026 mg/mL (≈ 65.9 µM); solubility at 24 h ([1]; aqueous with cosolvent or surfactant or cyclodextrin, ACD 20 mg/ml): 0.013 mg/mL (≈ 33 µM); solubility at 24 h ([1]; aqueous with cosolvent or surfactant or cyclodextrin, ACD 30 mg/ml): 0.01 mg/mL (≈ 25.4 µM); solubility at 24 h ([1]; aqueous with cosolvent or surfactant or cyclodextrin, ACD 40 mg/ml): 0.017 mg/mL (≈ 43.1 µM); solubility at 24 h ([1]; aqueous with cosolvent or surfactant or cyclodextrin, HPBCD 25 mg/ml): 0.037 mg/mL (≈ 93.8 µM); solubility at 24 h ([1]; aqueous with cosolvent or surfactant or cyclodextrin, HPBCD 50 mg/ml): 0.083 mg/mL (≈ 210 µM); solubility at 24 h ([1]; aqueous with cosolvent or surfactant or cyclodextrin, HPBCD 75 mg/ml): 0.108 mg/mL (≈ 274 µM); solubility at 24 h ([1]; aqueous with cosolvent or surfactant or cyclodextrin, HPBCD 100 mg/ml): 0.184 mg/mL (≈ 466 µM); solubility at 24 h ([1]; aqueous with cosolvent or surfactant or cyclodextrin, HPBCD 150 mg/ml): 0.312 mg/mL (≈ 791 µM); solubility at 24 h ([1]; aqueous with cosolvent or surfactant or cyclodextrin, HPBCD 200 mg/ml): 0.467 mg/mL (≈ 1180 µM); solubility at 24 h ([1]; aqueous with cosolvent or surfactant or cyclodextrin, HPGCD 25 mg/ml): 0.009 mg/mL (≈ 22.8 µM); solubility at 24 h ([1]; aqueous with cosolvent or surfactant or cyclodextrin, HPGCD 50 mg/ml): 0.016 mg/mL (≈ 40.6 µM); solubility at 24 h ([1]; aqueous with cosolvent or surfactant or cyclodextrin, HPGCD 75 mg/ml): 0.006 mg/mL (≈ 15.2 µM); solubility at 24 h ([1]; aqueous with cosolvent or surfactant or cyclodextrin, HPGCD 100 mg/ml): 0.002 mg/mL (≈ 5.07 µM); solubility at 24 h ([1]; aqueous with cosolvent or surfactant or cyclodextrin, HPGCD 150 mg/ml): 0.004 mg/mL (≈ 10.1 µM); solubility at 24 h ([1]; aqueous with cosolvent or surfactant or cyclodextrin, HPGCD 200 mg/ml): 0.003 mg/mL (≈ 7.61 µM); solubility at 24 h ([1]; aqueous with cosolvent or surfactant or cyclodextrin, MBCD 25 mg/ml): 0.244 mg/mL (≈ 619 µM); solubility at 24 h ([1]; aqueous with cosolvent or surfactant or cyclodextrin, MBCD 50 mg/ml): 0.477 mg/mL (≈ 1210 µM); solubility at 24 h ([1]; aqueous with cosolvent or surfactant or cyclodextrin, MBCD 75 mg/ml): 0.673 mg/mL (≈ 1710 µM); solubility at 24 h ([1]; aqueous with cosolvent or surfactant or cyclodextrin, MBCD 100 mg/ml): 1.07 mg/mL (≈ 2700 µM); solubility at 24 h ([1]; aqueous with cosolvent or surfactant or cyclodextrin, MBCD 150 mg/ml): 1.7 mg/mL (≈ 4300 µM); solubility at 24 h ([1]; aqueous with cosolvent or surfactant or cyclodextrin, MBCD 200 mg/ml): 1.78 mg/mL (≈ 4520 µM); solubility at 24 h ([1]; aqueous with cosolvent or surfactant or cyclodextrin, SBEBCD 25 mg/ml): 0.094 mg/mL (≈ 238 µM); solubility at 24 h ([1]; aqueous with cosolvent or surfactant or cyclodextrin, SBEBCD 50 mg/ml): 0.116 mg/mL (≈ 294 µM); solubility at 24 h ([1]; aqueous with cosolvent or surfactant or cyclodextrin, SBEBCD 75 mg/ml): 0.156 mg/mL (≈ 395 µM); solubility at 24 h ([1]; aqueous with cosolvent or surfactant or cyclodextrin, SBEBCD 100 mg/ml): 0.174 mg/mL (≈ 441 µM); solubility at 24 h ([1]; aqueous with cosolvent or surfactant or cyclodextrin, SBEBCD 150 mg/ml): 0.315 mg/mL (≈ 799 µM); solubility at 24 h ([1]; aqueous with cosolvent or surfactant or cyclodextrin, SBEBCD 200 mg/ml): 0.761 mg/mL (≈ 1930 µM); solubility at 24 h ([1]; water, ACD 0 mg/ml): 0.026 mg/mL (≈ 65.9 µM); solubility at 24 h ([1]; water, HPBCD 0 mg/ml): 0.026 mg/mL (≈ 65.9 µM); solubility at 24 h ([1]; water, HPGCD 0 mg/ml): 0.026 mg/mL (≈ 65.9 µM); solubility at 24 h ([1]; water, MBCD 0 mg/ml): 0.026 mg/mL (≈ 65.9 µM); solubility at 24 h ([1]; water, SBEBCD 0 mg/ml): 0.026 mg/mL (≈ 65.9 µM); pH at 24 hrs equilibrium ([2]; 24 hrs): 8.09; solubility at 24 h ([2]; pH 8.09, thermodynamic from solid, room temperature, 24 hrs): 0.011 mg/mL (≈ 27.9 µM); solubility at 3 h ([2]; thermodynamic from solid, room temperature, 3 hrs): 0.002 mg/mL (≈ 5.07 µM); solubility at 24 h ([3]; DI water, water, L-Arginine 0 % w/w in DI water): 0.00115 mg/mL (≈ 2.91 µM); solubility at 24 h ([3]; aqueous L-Arginine solution in DI water, aqueous with cosolvent or surfactant or cyclodextrin, L-Arginine 0.15 % w/w in DI water): 0.0111 mg/mL (≈ 28.1 µM); solubility at 24 h ([3]; aqueous L-Arginine solution in DI water, aqueous with cosolvent or surfactant or cyclodextrin, L-Arginine 0.31 % w/w in DI water): 0.0151 mg/mL (≈ 38.3 µM); solubility at 24 h ([3]; aqueous L-Arginine solution in DI water, aqueous with cosolvent or surfactant or cyclodextrin, L-Arginine 0.5 % w/w in DI water): 0.0253 mg/mL (≈ 64.2 µM); solubility at 24 h ([3]; aqueous L-Arginine solution in DI water, aqueous with cosolvent or surfactant or cyclodextrin, L-Arginine 0.63 % w/w in DI water): 0.0342 mg/mL (≈ 86.7 µM); solubility at 24 h ([3]; aqueous L-Arginine solution in DI water, aqueous with cosolvent or surfactant or cyclodextrin, L-Arginine 1.25 % w/w in DI water): 0.0468 mg/mL (≈ 119 µM); solubility at 24 h ([3]; aqueous L-Arginine solution in DI water, aqueous with cosolvent or surfactant or cyclodextrin, L-Arginine 2.5 % w/w in DI water): 0.0858 mg/mL (≈ 218 µM)
